From patent publication US7592336B2, “Hepatitis C virus inhibitors” (Bristol-Myers Squibb Company, priority 2005, dated 2009)
Read-outs that look alike come from different tables or passages of the source.

Experiments:
[1] = target: T1, HCV NS3/4A protease complex, BMS strain (UniProt P27958, species not given/STRAIN_BMS); assay: FRET peptide assay to monitor HCV NS3/4A proteolytic activity (BMS strain); type: biochemical, HCV genotype 1a
T1 construct: said of H77 and J4L6S, not expressly of BMS; fused on or other part: A three-lysine solubilising tail at the NS4A C-terminus and purification on Ni-NTA are described for the H77 and J4L6S constructs
T1 sequence (P27958 1027-1657, change not shown, one chain of several): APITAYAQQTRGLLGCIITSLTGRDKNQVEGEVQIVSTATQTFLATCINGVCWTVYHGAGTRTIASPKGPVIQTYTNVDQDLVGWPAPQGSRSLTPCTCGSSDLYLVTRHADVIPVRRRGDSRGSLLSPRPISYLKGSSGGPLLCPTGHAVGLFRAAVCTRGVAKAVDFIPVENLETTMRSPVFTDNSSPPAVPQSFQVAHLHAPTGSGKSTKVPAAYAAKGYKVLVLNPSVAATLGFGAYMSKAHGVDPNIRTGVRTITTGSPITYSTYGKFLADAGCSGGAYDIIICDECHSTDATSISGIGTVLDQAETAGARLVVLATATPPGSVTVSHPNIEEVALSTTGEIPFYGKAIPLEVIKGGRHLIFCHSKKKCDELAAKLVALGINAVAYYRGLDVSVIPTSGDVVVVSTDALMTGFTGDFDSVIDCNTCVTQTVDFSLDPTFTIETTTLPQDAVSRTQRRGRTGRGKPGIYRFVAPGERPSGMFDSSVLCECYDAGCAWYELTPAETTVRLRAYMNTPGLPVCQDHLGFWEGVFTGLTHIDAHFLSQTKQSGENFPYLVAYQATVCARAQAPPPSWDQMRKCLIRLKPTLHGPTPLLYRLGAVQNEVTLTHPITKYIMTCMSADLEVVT
Excerpt: HCV NS3 protease complexes, derived from the BMS strain, H77 strain or J4L6S strain, were generated, as described below. These purified recombinant proteins were generated for use in a homogeneous assay (see below) to provide an indication of how effective compounds of the present disclosure would be in inhibiting HCV NS3 proteolytic activity.
Serum from an HCV-infected patient was obtained from Dr. T. Wright, San Francisco Hospital. An engineered full-length cDNA (compliment deoxyribonucleic acid) template of the HCV genome (BMS strain) was constructed from DNA fragments obtained by reverse transcription-PCR (RT-PCR) of serum RNA (ribonucleic acid) and using primers selected on the basis of homology between other genotype 1a strains. From the determination of the entire genome sequence, a genotype 1a was assigned to the HCV isolate according to the classification of Simmonds et al. (See P Simmonds, K A Rose, S Graham, S W Chan, F McOmish, B C Dow, E A Follett, P L Yap and H Marsden, J. Clin. Microbiol., 31(6), 1493-1503 (1993)). […] The infectious clones, H77 (1a genotype) and J4L6S (1b genotype) were obtained from R. Purcell (NIH) and the sequences are published in Genbank (AAB67036, see Yanagi, M., Purcell, R. H., Emerson, S. U. and Bukh, J. Proc. Natl. Acad. Sci. U.S.A. 94(16), 8738-8743 (1997); AF054247, see Yanagi, M., St Claire, M., Shapiro, M., Emerson, S. U., Purcell, R. H. and Bukh, J, Virology 244 (1), 161-172. (1998)).
NS3/4A protease complex-containing fractions were pooled and loaded on a desalting column Superdex-S200 pre-equilibrated with buffer D (25 mM HEPES, pH 7.5, 20% glycerol, 300 mM NaCl, 0.2% Triton X-100, 10 mM βME). Sample was loaded at a flow rate of 1 mL/min. NS3/4A protease complex-containing fractions were pooled and concentrated to approximately 0.5 mg/ml. The purity of the NS3/4A protease complexes, derived from the BMS, H77 and J4L6S strains, were judged to be greater than 90% by SDS-PAGE and mass spectrometry analyses. The enzyme was stored at −80° C., thawed on ice and diluted prior to use in assay buffer.
The purpose of this in vitro assay was to measure the inhibition of HCV NS3 protease complexes, derived from the BMS strain, H77 strain or J4L6S strain, as described above, by compounds of the present disclosure. This assay provides an indication of how effective compounds of the present disclosure would be in inhibiting HCV NS3 proteolytic activity.
In order to monitor HCV NS3/4A protease activity, an NS3/4A peptide substrate was used. The substrate was RET S1 (Resonance Energy Transfer Depsipeptide Substrate; AnaSpec, Inc. cat #22991) (FRET peptide), described by Taliani et al. in Anal. Biochem. 240(2):60-67 (1996). The sequence of this peptide is loosely based on the NS4A/NS4B natural cleavage site for the HCV NS3 protease except there is an ester linkage rather than an amide bond at the cleavage site. The peptide also contains a fluorescence donor, EDANS, near one end of the peptide and an acceptor, DABCYL, near the other end. The fluorescence of the peptide is quenched by […] resonance energy transfer (RET) between the donor and the acceptor, but as the NS3 protease cleaves the peptide the products are released from RET quenching and the fluorescence of the donor becomes apparent.
The peptide substrate was incubated with one of the three recombinant NS3/4A protease complexes, in the absence or presence of a compound of the present disclosure. The inhibitory effects of a compound were determined by monitoring the formation of fluorescent reaction product in real time using a Cytofluor Series 4000.
Assay buffer: 50 mM HEPES, pH 7.5; 0.15M NaCl; 0.1% Triton; 15% Glycerol; 10 mM βME. Substrate: 2 μM final concentration (from a 2 mM stock solution in DMSO stored at −20° C.). HCV NS3/4A protease type 1a (1b), 2-3 nM final concentration (from a 5 μM stock solution in 25 mM HEPES, pH 7.5, 20% glycerol, 300 mM NaCl, 0.2% Triton-X100, 10 mM βME). […]

[2] = target: T2, human neutrophil elastase (HNE) (Homo sapiens, UniProt P08246); assay: Specificity assay, neutrophil elastase; type: biochemical; conditions: 2 h enzyme-inhibitor pre-incubation; read-out: HLE activity in the specificity assays (IC50)
T2 construct: purchased Sigma
T2 sequence (P08246 30-267): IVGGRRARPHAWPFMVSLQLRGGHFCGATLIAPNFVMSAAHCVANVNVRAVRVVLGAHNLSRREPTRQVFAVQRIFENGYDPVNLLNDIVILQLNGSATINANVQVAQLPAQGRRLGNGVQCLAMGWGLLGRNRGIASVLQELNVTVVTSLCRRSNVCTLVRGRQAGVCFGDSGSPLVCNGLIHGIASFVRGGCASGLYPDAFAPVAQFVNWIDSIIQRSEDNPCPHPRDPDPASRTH
Experimental: The specificities of compounds of the present disclosure were determined against a variety of serine proteases: human neutrophil elastase (HNE), porcine pancreatic elastase (PPE) and human pancreatic chymotrypsin and one cysteine protease: human liver cathepsin B. In all cases a 96-well plate format protocol using calorimetric p-nitroaniline (pNA) substrate specific for each enzyme was used as described previously (PCT Patent Application No. WO 00/09543) with some modifications to the serine protease assays. All enzymes were purchased from Sigma while the substrates were from Bachem.
Each assay included a 2 h enzyme-inhibitor pre-incubation at room temperature followed by addition of substrate and hydrolysis to 30% conversion as measured on a Spectramax Pro microplate reader. Compound concentrations varied from 100 to 0.4 μM depending on their potency. […]
The percentage of inhibition was calculated using the formula: [1−((UVinh−UVblank)/(UVctl−UVblank))]×100 […]

In the case of C=C[C@@H]1C[C@]1(NC(=O)[C@@H]1C[C@@](O)(c2ccc(-c3ccccc3)cc2)CN1C(=O)[C@@H](NC(=O)OC(C)(C)C)C(C)(C)C)C(=O)NS(=O)(=O)C1CC1 [Compound 3], the IC50 ([1]; BMS strain, read-out: IC50 against the NS3/4A BMS strain in the enzyme assay) is reported as 4 nM, the IC50 ([1]; NS3/4A BMS strain, read-out: Activity Range (IC50)) is reported as 1 to 100 nM and the IC50 [2] is reported as > 100000 nM.
